The record followed here is patent US12128038B2, “Method of treatment of organic acidemias and other mitochondria defects or deficiencies” (University of Pittsburgh-Of the Commonwealth System of …, priority 2020, dated 2024).

Holding throughout (assay type): cell-based, human
In assay [1] the test system is PA patient (859) fibroblasts. Nature of the assay: Mitochondrial superoxide production by MitoSOX Red assay (flow cytometry). Conditions: PA cells, treatment for 24 h. The protocol:
(§1) Cells Culture and Treatments: Fibroblast from a healthy control (826) and a PA patient (859) were grown in DMEM with glucose supplemented with 10% FBS, and 4 mM glutamine. Control and PA cells were treated either with JP4-039, CLP, or DMSO (vehicle control) for 24 h and then harvested for analysis.
Mitochondrial Superoxide production and Mitochondrial Mass: 150,000 Cells were incubated with MitoSOX Red (5 μM) and MitoTracker Green (150 nM) for 20 min at 37° C. and then analyzed by FACSAriall Flow cytometer.
FIG. 2. Superoxide levels detected by MitoSOX Red assay (A, B and C) and Mitochondrial mass detected by MitoTracker Green (D, E and F) in PA and healthy control cells with and without treatment for 24 h (A, B and C). Data shown here are means±SD and are normalized to WT mean value. ****P<0.0001, ***P<0.001, **P<0.01, *P<0.05 compared between the groups shown using unpaired t test for samples from a single biological replicate and minimum of at least three technical replicates.

In assay [2] the test system is PA (859) fibroblast cell line. Nature of the assay: Mitochondrial respiration (oxygen consumption rate), Seahorse XFe96 Extracellular Flux Analyzer. Conditions: PA cells, treatment for 24 h, Seahorse OCR. The procedure:
as §1
Measurement of Mitochondria Respiration: Oxygen consumption rate (OCR) was measured with a Seahorse XFe96 Extracellular Flux Analyzer, Seahorse Bioscience, Billerica, MA.
FIG. 3. Effect of JP4-039 and CLP on basal respiration of control (826) and PA (859) fibroblast cell line. Data shown here are means±SEM and are normalized to protein amount mean value. ****P<0.0001 and ***P<0.001 compared between the groups shown using unpaired t test for samples from a single biological replicate and 8 technical replicates.

The subject of assay [3] is cells from patients with inborn errors of energy metabolism. The experiment in a line: Cellular bioenergetics and reactive oxygen on incubation with antioxidants.

Structures are written as SMILES.

Consider `O=C(O)CC(O)(CC(=O)O)C(=O)O` [citrate], for which the superoxide level entry in assay [1] is on record as “reduced”. The basal respiration entry in assay [2] is “reduced”.

Regarding `O=C(O)CCC(=O)O` [succinate], in assay [1], the superoxide level result is “reduced”. In addition, the basal respiration result in assay [2] is “reduced”.

For `CC(C)C[C@@H](/C=C/[C@H](Cc1ccccc1)C(=O)N1CCC[C@H]1C(=O)N[C@H](C(=O)N[C@@H](CCCNC(=O)OCc1ccccc1)C(=O)NC1CC(C)(C)N([O])C(C)(C)C1)C(C)C)NC(=O)OC(C)(C)C` [XJB-5-131], in assay [3], the cellular bioenergetics entry is listed as “improve” and the reactive oxygen result was “improve”.
